Assay results as given in article PMC5369524 (Chemical Science, 2016).

Tests used:
[1] = system: HIV; conditions: ref [55]; cited from earlier work
[2] = target: C-terminal ZF2 of HIV1NCp7 (Human immunodeficiency virus type 1 group M subtype B, UniProt P12493); conditions: figures in parentheses of Table 1
[3] = target: full NCp7 peptide (Human immunodeficiency virus type 1 group M subtype B, UniProt P12493)
[4] = target: full NCp7 zinc finger peptide (Human immunodeficiency virus type 1 group M subtype B, UniProt P12493); conditions: positive band centered at 210–220 nm

Structure (SMILES) | Anti-HIV activity [1] | K a, association with C-terminal ZF2 of HIV1NCp7 [2] | K a, association with full NCp7 peptide ([3]; figures in bold parentheses of Table 1) | K a, association constant with full NCp7 peptide ([3]; fluorescence quenching) | Effect on CD spectrum / tertiary structure of NCp7 [4]
CCn1cnc2c(=O)[nH]c(N)nc21.N.[Cl][Pt+].c1ccc2ncccc2c1 [SP-4-2-[PtCl(NH3)(9-EtGua)(quinoline)]^+] | modest anti-HIV activity | – | – | – | –
CCn1cnc2c(=O)[nH]c(N)nc21.NCCNCCN.[Pt+2] [[Pt(dien)(9-EtGua)]^2+] | – | (13.10 ± 0.94) ×10^3 M^–1 | (20 ± 0.08) ×10^3 M^–1 | 2.0 × 10^4 M^–1 | no major disruption of the peptide
